One assay concerns the target T1, FPR1 F291A (Homo sapiens, UniProt P21462, F291A).
T1 construct: expressed in transfected cells; host or cells: HeLa cells, transient, pcDNA3.1(+)
T1 sequence (P21462 1-350 F291A): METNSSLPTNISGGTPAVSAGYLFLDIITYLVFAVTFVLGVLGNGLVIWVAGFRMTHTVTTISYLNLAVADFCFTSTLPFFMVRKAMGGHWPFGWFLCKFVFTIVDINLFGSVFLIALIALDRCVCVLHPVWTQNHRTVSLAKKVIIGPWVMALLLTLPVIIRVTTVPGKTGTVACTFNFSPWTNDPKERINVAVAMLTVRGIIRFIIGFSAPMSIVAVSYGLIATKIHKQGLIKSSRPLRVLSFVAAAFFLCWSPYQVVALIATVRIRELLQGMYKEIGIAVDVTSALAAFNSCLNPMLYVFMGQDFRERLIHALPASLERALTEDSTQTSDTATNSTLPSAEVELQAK
Briefly: cAMP inhibition assay, FPR1 F291A. Format: cell-based. The settings on record: FPR1 F291A, single replicate readings. An excerpt:
(§1) FPR1 cDNA in the pcDNA3.1(+) vector (Invitrogen) was used as a template for gene manipulation. The mutations of FPR1 were introduced in the receptor through overlap extension PCR with elaborately designed primers (GENEWIZ, Suzhou, China). The sequences of the primers were listed in Supplementary Table 2. Two fragments of FPR1 (separated at mutated positions) were assembled into pre-cut pcDNA3.1(+) vectors with the ClonExpress Ultra One Step Cloning Kit (Vazyme Biotech, C115). Plasmids with FPR1 mutations were confirmed by DNA sequencing (GENEWIZ).
(§2) For functional studies, FPR1 and its mutants were expressed in HeLa cells as above. The cells were resuspended in HBSS buffer plus 5 mM HEPES, 0.1% BSA (w/v) and 0.5 mM 3-isobutyl-1-methylxanthine and seeded into 384-well plates. […] AG-14 was synthesized by Sungening Biotechnology (Shenzhen, China). Different concentrations of the ligands were prepared plus a fixed dose of forskolin with the buffer above. […] Intracellular cAMP levels were measured with the LANCE Ultra cAMP kit (PerkinElmer, TRF0263) following the manufacturer’s instructions. […] Intracellular cAMP levels were calculated according to the TR-FRET signals of the samples and cAMP standards.
(§3) The data were analyzed with Prism 6.0 (GraphPad, San Diego, CA). For dose-response analysis, the curves were plotted with the log[agonist] vs. response equation (three parameters) in the software. Data points were presented as the percentages (mean ± SEM) of the maximal cAMP level for each construct, from at least three independent experiments, as indicated in figure legends. The pEC50 values were the negative logarithm of the EC50 values, which were obtained from the dose-response curves. For cell surface expression, data points were presented as the percentages (mean ± SEM) of the flow cytometry fluorescence signals of WT FPR1. For statistical comparison, a p-value of 0.05 or lower is considered statistically significant.

The target in a further assay is T2, FPR1 R84A (Homo sapiens, UniProt P21462, R84A).
T2 construct: expressed in transfected cells; host or cells: HeLa cells, transient, pcDNA3.1(+)
T2 sequence (P21462 1-350 R84A): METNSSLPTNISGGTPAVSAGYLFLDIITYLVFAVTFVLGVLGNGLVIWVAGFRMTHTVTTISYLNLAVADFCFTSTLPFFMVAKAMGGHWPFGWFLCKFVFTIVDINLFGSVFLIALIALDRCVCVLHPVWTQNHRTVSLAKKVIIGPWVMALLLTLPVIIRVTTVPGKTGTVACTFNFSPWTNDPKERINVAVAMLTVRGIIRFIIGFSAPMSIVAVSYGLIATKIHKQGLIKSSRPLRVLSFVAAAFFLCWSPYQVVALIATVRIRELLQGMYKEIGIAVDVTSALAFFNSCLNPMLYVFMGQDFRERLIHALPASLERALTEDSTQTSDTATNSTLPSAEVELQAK
Briefly: cAMP inhibition assay, FPR1 R84A. Also on record: key to cAMP response, source data of Fig. 5c: % of maximal cAMP level for each construct. The assay is classed as cell-based.
Text: as §1, §2, §3

Assay [1] has as its target T3, FPR1 R205A (Homo sapiens, UniProt P21462, R205A).
T3 construct: expressed in transfected cells; host or cells: HeLa cells, transient, pcDNA3.1(+)
T3 sequence (P21462 1-350 R205A): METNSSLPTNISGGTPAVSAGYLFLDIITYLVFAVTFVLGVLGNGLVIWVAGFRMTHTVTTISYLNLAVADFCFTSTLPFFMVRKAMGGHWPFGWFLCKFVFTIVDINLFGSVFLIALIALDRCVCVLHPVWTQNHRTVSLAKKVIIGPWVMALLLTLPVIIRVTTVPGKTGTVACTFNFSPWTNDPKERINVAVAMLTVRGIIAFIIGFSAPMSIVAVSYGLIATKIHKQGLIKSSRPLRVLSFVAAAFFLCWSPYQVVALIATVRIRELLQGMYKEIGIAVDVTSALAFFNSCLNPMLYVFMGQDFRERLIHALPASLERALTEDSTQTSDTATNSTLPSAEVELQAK
Briefly: cAMP inhibition assay, FPR1 R205A. The assay is classed as cell-based. Also on record: key to cAMP response, source data of Fig. 5c: % of maximal cAMP level for each construct. The settings on record: for cAMP response, source data of Fig. 5c: FPR1 R205A, single replicate readings.
Text: as §1, §2, §3

The target of assay [2] is T4, FPR1 R201A (Homo sapiens, UniProt P21462, R201A).
T4 construct: expressed in transfected cells; host or cells: HeLa cells, transient, pcDNA3.1(+)
T4 sequence (P21462 1-350 R201A): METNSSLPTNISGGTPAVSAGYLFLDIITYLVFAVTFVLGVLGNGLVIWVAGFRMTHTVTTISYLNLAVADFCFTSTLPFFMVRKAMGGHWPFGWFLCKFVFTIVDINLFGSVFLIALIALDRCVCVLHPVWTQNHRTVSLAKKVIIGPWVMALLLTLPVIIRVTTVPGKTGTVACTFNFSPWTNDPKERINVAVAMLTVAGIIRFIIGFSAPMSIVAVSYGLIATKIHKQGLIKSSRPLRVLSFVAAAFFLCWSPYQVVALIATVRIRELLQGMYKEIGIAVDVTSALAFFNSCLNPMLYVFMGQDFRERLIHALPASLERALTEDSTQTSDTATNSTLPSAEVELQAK
Briefly: cAMP inhibition assay, FPR1 R201A. Format: cell-based.
Text: as §1
(§4) For functional studies, FPR1 and its mutants were expressed in HeLa cells as above. The cells were resuspended in HBSS buffer plus 5 mM HEPES, 0.1% BSA (w/v) and 0.5 mM 3-isobutyl-1-methylxanthine and seeded into 384-well plates. […] AG-14 was synthesized by Sungening Biotechnology (Shenzhen, China). […] Intracellular cAMP levels were measured with the LANCE Ultra cAMP kit (PerkinElmer, TRF0263) following the manufacturer’s instructions. […] Intracellular cAMP levels were calculated according to the TR-FRET signals of the samples and cAMP standards.
(§5) The data were analyzed with Prism 6.0 (GraphPad, San Diego, CA). […] For cell surface expression, data points were presented as the percentages (mean ± SEM) of the flow cytometry fluorescence signals of WT FPR1. […]

Another assay deals with T5, FPR1 WT (Homo sapiens, UniProt P21462).
T5 construct: expressed in transfected cells; host or cells: HeLa cells, transient, pcDNA3.1(+)
T5 sequence (P21462 1-350): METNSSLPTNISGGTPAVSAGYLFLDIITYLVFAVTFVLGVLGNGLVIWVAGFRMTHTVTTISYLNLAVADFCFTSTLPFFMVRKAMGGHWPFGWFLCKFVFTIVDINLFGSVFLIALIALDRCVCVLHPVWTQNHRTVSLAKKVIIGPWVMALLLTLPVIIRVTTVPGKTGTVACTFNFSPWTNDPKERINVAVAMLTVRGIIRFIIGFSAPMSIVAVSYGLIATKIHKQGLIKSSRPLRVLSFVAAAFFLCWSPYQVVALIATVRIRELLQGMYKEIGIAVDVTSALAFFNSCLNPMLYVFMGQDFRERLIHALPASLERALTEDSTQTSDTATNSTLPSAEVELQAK
Briefly: cAMP inhibition assay, WT FPR1. Format: cell-based.
Text: as §1, §4, §5

The target in assay [3] is T6, WT FPR1 expressed in HeLa cells (human, UniProt P21462 1-350).
T6 sequence (looked up): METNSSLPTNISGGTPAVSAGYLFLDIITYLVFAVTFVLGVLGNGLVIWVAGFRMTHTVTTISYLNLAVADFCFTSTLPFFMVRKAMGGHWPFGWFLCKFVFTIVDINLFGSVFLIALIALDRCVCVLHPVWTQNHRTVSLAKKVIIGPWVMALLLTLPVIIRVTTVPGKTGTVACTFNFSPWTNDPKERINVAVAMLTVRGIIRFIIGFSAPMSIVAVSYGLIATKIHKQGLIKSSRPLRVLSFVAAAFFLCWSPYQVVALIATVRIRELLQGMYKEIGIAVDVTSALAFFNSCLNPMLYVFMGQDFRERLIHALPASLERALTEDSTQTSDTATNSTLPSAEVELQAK

Assay [4] addresses T6, WT FPR1 expressed in HeLa cells. Briefly: cell-based or functional assay.
Assay [5] concerns the target T7, FPR1 R205A (human, UniProt P21462 1-350, R205A).
T7 sequence (looked up): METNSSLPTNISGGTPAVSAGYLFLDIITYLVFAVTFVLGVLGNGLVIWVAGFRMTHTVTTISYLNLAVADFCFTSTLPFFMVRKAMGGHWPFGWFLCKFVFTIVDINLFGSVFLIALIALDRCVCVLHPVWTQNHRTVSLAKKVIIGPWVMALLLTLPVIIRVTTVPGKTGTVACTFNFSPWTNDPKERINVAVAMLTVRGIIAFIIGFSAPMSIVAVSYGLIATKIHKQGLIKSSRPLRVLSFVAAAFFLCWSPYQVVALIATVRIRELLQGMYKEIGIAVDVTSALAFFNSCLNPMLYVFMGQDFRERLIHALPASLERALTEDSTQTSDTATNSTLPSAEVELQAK
Briefly: cell-based or functional assay.

Assay [6] addresses T8, FPR1 R201A (human, UniProt P21462 1-350, R201A).
T8 sequence (looked up): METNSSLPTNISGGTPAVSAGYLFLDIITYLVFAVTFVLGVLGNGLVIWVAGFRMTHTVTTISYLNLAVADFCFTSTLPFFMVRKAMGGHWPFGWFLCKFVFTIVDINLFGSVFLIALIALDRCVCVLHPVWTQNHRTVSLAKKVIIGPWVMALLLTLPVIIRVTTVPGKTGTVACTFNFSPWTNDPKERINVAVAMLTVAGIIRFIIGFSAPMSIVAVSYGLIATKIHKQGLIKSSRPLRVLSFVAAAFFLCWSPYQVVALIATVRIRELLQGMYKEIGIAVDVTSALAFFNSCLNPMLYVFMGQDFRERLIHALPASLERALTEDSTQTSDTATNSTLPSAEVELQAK
Briefly: cell-based or functional assay.

The record followed here is paper PMC9445081, “Structural basis for recognition of N-formyl peptides as pathogen-associated molecular patterns” (Nature Communications, 2022).

Several values for one entry are separate records, joined by “and”; a condition that tells them apart may be missing. Equal values may be shown once. Read-outs that look alike come from different tables or passages of the source. Where a SMILES comes first, the peptide text is derived from it. Where no end group is shown, it is not given here. The star is where a group is joined. For = O=C*

Consider `COc1cc(C=NNC(=O)c2ccc3c(c2)OCO3)ccc1OCc1ccccc1` [Fig. 5c], for which the “cAMP response, source data of Fig. 5c” value was 33.9 and 34.1 and 26.7 and 28.4 and 24.2 and 31.1 at FPR1 F291A (Log[M] -4.3); 45.9 and 38.0 and 28.1 and 39.1 and 42.3 and 29.9 on FPR1 F291A (Log[M] -5.0); 66.9 and 58.1 and 74.7 and 72.6 on FPR1 F291A (Log[M] -5.7); 37.2 and 21.4 and -4.8 and 34.9 and 32.8 and 41.9 on FPR1 R84A (Log[M] -4.3, single replicate readings); 14.6 and -24.6 and 16.2 and 33.5 and 20.2 and 31.4 at FPR1 R84A (Log[M] -5.0, single replicate readings); 49.5 and 79.5 and 66.2 and 55.1 and 52.2 and 52.7 on FPR1 R84A (Log[M] -5.7, single replicate readings). The “cAMP response, source data of Fig. 5c” value on FPR1 R84A (Log[M] -6.4, single replicate readings) is 79.9 and 58.8 and 61.6 and 91.8 and 112.7 and 81.8; at FPR1 R84A (Log[M] -7.1, single replicate readings), 135.9 and 91.7 and 83.9 and 115.6 and 133.7 and 94.7; on FPR1 R84A (Log[M] -7.8, single replicate readings), 106.7 and 82.2 and 108.6 and 111.9 and 96.0 and 84.6; at FPR1 R84A (Log[M] -8.5, single replicate readings), 91.1 and 94.4 and 114.8 and 80.2 and 111.9 and 117.6; at FPR1 R205A [1] (Log[M] -4.3) it was 31.8 and 48.0 and 38.0 and 26.4 and 16.2 and 78.8; on FPR1 R205A [1] (Log[M] -5.0), 58.1 and 43.9 and 27.8 and 37.0 and 34.2 and 45.7. The “cAMP response, source data of Fig. 5c” value was 35.5 and 68.3 and 63.8 and 45.2 and 48.0 and 85.4 on FPR1 R205A [1] (Log[M] -5.7); 69.2 and 71.8 and 39.5 and 113.9 and 150.2 and 118.4 on FPR1 R205A [1] (Log[M] -6.4); 78.9 and 109.8 and 60.3 and 84.0 and 71.2 and 109.6 at FPR1 R205A [1] (Log[M] -7.1); 116.3 and 101.9 and 108.0 and 144.2 and 102.7 and 124.3 at FPR1 R205A [1] (Log[M] -7.8); 91.9 and 89.9 and 58.5 and 89.3 and 105.1 and 67.8 at FPR1 R205A [1] (Log[M] -8.5).

For `CC[C@H](C)[C@H](NC(=O)[C@H](CCSC)NC=O)C(=O)N[C@@H](Cc1ccccc1)C(=O)N[C@@H](CC(C)C)C(=O)O` [fMIFL, fMet-Ile-Phe-Leu] (For-MIFL-OH), the EC50 on FPR1 R201A [2] is 6.31 nM; on FPR1 WT it was 0.0631 nM; on FPR1 R205A [1] it was 2.51 nM.

In [3], WKYMVm (peptide) had a pEC50 of inhibition of forskolin-elevated cAMP, transfected HeLa cells of 8.4.

B1: fMet-Ile-Phe-Leu (fMIFL) (peptide)
peptide: For-MIFL
For B1, the figures for the “pEC50 of inhibition of forskolin-elevated cAMP, transfected HeLa cells” value (in assay [4]; in the assay with FPR1 R205A [5]; with FPR1 R201A [6]) were 10.2, 8.6 and 8.2, respectively.

Usually EC50 stands for the concentration that produces a half-maximal response.
